Patent US10752640B2, “Compounds active towards bromodomains” (NUEVOLUTION A/S, priority 2014, dated 2020)

Key:
BRD4 protein = BRD4 protein (Homo sapiens, UniProt O60885); experiment: FRET assay, half maximal inhibitory concentration (IC50); assay type: binding; conditions: BRD4 protein 50 nM, Biotin-H4KAc4 peptide 12.5 nM; List of Classification
Summary of the method: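 Acetylated histone H4 peptide binding (biotin-H4KAc4, 12.5 nM final) to BRD4 (50 nM final) detected by TR-FRET between streptavidin cryptate (2.4 nM) and GST-XL665 antibody (10 nM) in KF/BSA. Buffer: HEPES pH 7.5, NaCl, CHAPS. Compound dilutions from 50 μM in 12.5% DMSO were preincubated with protein for 30 min. Variable-slope IC50.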

[1] = molecular target: T1, BRD4(1), first bromodomain of BRD4 (Homo sapiens, UniProt O60885); experiment: Bromoscan assay BRD4(1) (DiscoveRx); assay type: binding; conditions: for Kd: first bromodomain of BRD4, read-out: BromoScan BRD4_1 Kd/nM; for BromoScan BRD4_2/1: ratio of Kd BRD4_2 to BRD4_1, selectivity for BRD4_1 over BRD4_2
T1 construct: BRD4(1) for the first bromodomain of BRD4; purchased DiscoveRx Corporation (assay service); host or cells: T7 phage grown in an E. coli host derived from the BL21 strain
Experimental: (§1) Bromoscan assays were run by DiscoveRx Corporation. The relevant assay names are BRD4(1) for the first bromodomain of BRD4 and BRD4(2) for the second bromodomain of BRD4. Further Bromoscan assays covering other bromodomains could be employed to establish the selectivity profile of a compound of interest. To run the Bromoscan assay, a T7 phage strain displaying the relevant bromodomain was grown in parallel in 24-well blocks in an E. coli host derived from the BL21 strain. E. coli were grown to log-phase and infected with T7 phage from a frozen stock (multiplicity of infection=0.4) and incubated with shaking at 32° C. until lysis (90-150 minutes). The lysates were centrifuged (5,000×g) and filtered (0.2 μm) to remove cell debris. Streptavidin-coated magnetic beads were treated with biotinylated small molecule or acetylated peptide ligands for 30 minutes at room temperature to generate affinity resins for bromodomain assays. The liganded beads were blocked with excess biotin and washed with blocking buffer (SeaBlock (Pierce), 1% BSA (bovine serum albumin), 0.05% Tween 20, 1 mM DTT (dithiothreitol)) to remove unbound ligand and to reduce non-specific phage binding. Binding reactions were assembled by combining bromodomains, liganded affinity beads, and test compounds in 1× binding buffer (17% SeaBlock, 0.33×PBS, 0.04% Tween 20, 0.02% BSA, 0.004% Sodium azide, 7.4 mM DTT). Test compounds were prepared as 1000× stocks in 100% DMSO and subsequently diluted 1:10 in monoethylene glycol (MEG) to create stocks at 100× the screening concentration (resulting stock solution is 10% DMSO/90% MEG). The compounds were then diluted directly into the assays such that the final concentration of DMSO and MEG were 0.1% and 0.9%, respectively. All reactions were performed in polystyrene 96-well plates in a final volume of 0.135 ml. The assay plates were incubated at room temperature with shaking for 1 hour and the affinity beads were washed with wash buffer (1×PBS, 0.05% Tween 20). The beads were then re-suspended in elution buffer (lx PBS, 0.05% Tween 20, 2 μM nonbiotinylated affinity ligand) and incubated at room temperature with shaking for 30 minutes. The bromodomain concentration in the eluates was measured by qPCR (quantitative real-time polymerase chain reaction).

[2] = molecular target: T2, BRD4(2), second bromodomain of BRD4 (Homo sapiens, UniProt O60885); experiment: Bromoscan assay BRD4(2) (DiscoveRx); assay type: binding; conditions: read-out: BromoScan BRD4_2 Kd/nM
T2 construct: BRD4(2) for the second bromodomain of BRD4; purchased DiscoveRx Corporation (assay service); host or cells: T7 phage grown in an E. coli host derived from the BL21 strain
Experimental: as §1

MV-4-11 tumor cells = experiment: Cell viability assay (CellTiter-Glo); assay type: cell-based; conditions: Homo sapiens, MV4-11; MV-4-11 cells, 72 hours with compound
Experimental: Grow MV-4-11 tumor cells (ATCC CRL-9591) in suspension at 37° C. in a humidified atmosphere (5% CO2, 95% air, IMDM (Iscove's Modified Dulbecco's Medium) medium supplemented with 10% FBS (fetal bovine serum)) Seed cells at a density of 10.000 cells per well of a flat-bottomed 96 well plate in 50 μL of medium. After 24 hours, add 50 μL of test compound or DMSO control from a pre-generated compound dilution series in medium. After an additional 72 hours, add 100 μL of pre-mixed CellTiter-Glo reagent (Promega G7570) to each well, shake for two minutes to allow cell lysis followed by 10 minutes of incubation at room temperature without shaking. Read luminescence on an Envision reader (Perkin Elmer). The inhibition of cell viability (IC) can be expressed as follows:
[formula] IC data can be analyzed using GraphPad Prism, and IC50 data can be obtained using non-linear regression curve fit using log(compound) vs response (variable slope). The effect of compound on the viability of other cell lines can be assayed under similar conditions, taking into account the growth requirement of the individual cell line.

IL-12p40 = experiment: Cytokine release inhibition assay: LPS-induced cytokine release from human PBMCs; assay type: cell-based; conditions: PBMC, LPS 1 ng/mL, 18 h, read-out: LPS IC50 IL12p40 μM
Experimental: Cytokine release inhibition assay: LPS-induced cytokine release from human peripheral blood mononuclear cells (PBMCs)
200,000 PBMCs were seeded per well of a 96-well plate in 160 μL of medium. Afterwards, 20 μL of ten times concentrated working dilutions of compound or DMSO control were added per well. Cells were pre-incubated with compounds for 1 h at 37° C., 5% CO2, 95% humidity and 20 μL of ten times concentrated LPS was added to cells (Sigma L4391, final concentration 1 ng/mL). Following 18 h incubation at 37° C., 5% CO2, 95% humidity, plates were centrifuged for 10 minutes at 300×g. 150 μL of supernatants were collected for IL-12p40 determination. The concentration of IL-12p40 in supernatants was determined by sandwich ELISA (enzyme-linked immunosorbent assay) using capture and detection antibodies according to the manufacturer's instructions (R&D Systems DY1240). Data can be analyzed using GraphPad Prism, and IC50 data can be obtained using non-linear regression curve fit using log(compound) vs response (variable slope).

IC50 (BRD4 protein) [nM] | Kd [1] [nM] | BromoScan BRD4_2/1 [1] | Kd [2] [nM] | IC50 (MV-4-11 tumor cells) [nM] | IC50 (IL-12p40) [nM] | Structure (SMILES)
< 200 | 6.2 | 190.9 | 1180 | 1200 | – | Cc1cc(O)nc2ccc(NC(=O)c3cc(S(=O)(=O)N4CCCCC4)ccc3N3CCOCC3)cc12 [Compound-67, N-(2-hydroxy-4-methyl-6-quinolyl)-2-morpholino-5-(1-piperidylsulfonyl)benzamide]
< 200 | 3.6 | 7.8 | 28 | 700 | – | Cc1cc(O)nc2c(C)cc(NC(=O)c3cc(S(=O)(=O)N(C)C)ccc3N3CCCC3)cc12 [Compound-107, 5-(dimethylsulfamoyl)-N-(2-hydroxy-4,8-dimethyl-6-quinolyl)-2-pyrrolidin-1-yl-benzamide]
< 200 | 16 | 11.9 | 190 | 600 | – | Cc1cc(O)nc2ccc(NC(=O)c3cc(C4(N5CCOCC5)CC4)ccc3N3CCCC3)cc12 [Compound-113, N-(4-methyl-2-oxo-1,2-dihydroquinolin-6-yl)-5-(1-morpholinocyclopropyl)-2-(pyrrolidin-1-yl)benzamide]
< 200 | 13 | 25.4 | 330 | 600 | 300 | Cc1cc(O)nc2ccc(NC(=O)c3cc(CN4CCN(C)CC4)ccc3N3CCCC3)cc12 [compound 1, N-(2-hydroxy-4-methylquinolin-6-yl)-5-((4-methylpiperazin-1-yl)methyl)-2-(pyrrolidin-1-yl)benzamide]
